Experimental data published in patent US20090117089A1, “GLYCOLIPIDS AND ANALOGUES THEREOF AS ANTIGENS FOR NK T CELLS” (The Rockefeller University, priority 2005, published 2009).

How the values were obtained:
J558 tumor cells = assay: Tumor protection assay, J558 plasmacytoma; format: in vivo, mouse; conditions: for protection from J558 tumor challenge / tumor growth after single agent alone: challenge 14 days later; for tumor growth after single agent alone: glycolipid alone (2 or 0.2 μg/mouse) or irradiated cells alone; for protective immunity to irradiated tumor injected i.v. (adjuvant comparison): vs αCD40 and poly IC
Description: (§1) 2×10^7 irradiated J558-Ld^− cells, were injected i.v. or s.c. into Balb/c mice with or without α-Gal Cer as a DC maturation stimulus. In some experiments we compared α-Gal Cer to agonistic anti-CD40 mAb (1C10, 25 μg i.p.) or the toll like receptor ligands, poly IC ([…], Invivogen) or lipopolysaccharide (20 μgm, Sigma). The mice had been given CFSE-labeled PICTL CD8^+ T cells i.v. 1 d earlier, or were naive animals. In some experiments, mice were sacrificed 3 d later, and T cell division and activation in spleen were analyzed by flow cytometry. Additionally, 7 d or 2 months later, 5×10^6 live J558 tumor cells were inoculated subcutaneously. 5×10^6 Meth A fibrosarcoma was used as a control tumor for challenge. Tumor cell growth was measured with calipers every other day. Mice were scored positive for tumor as soon as tumors became palpable and grew progressively. Mice were euthanized when tumor size exceeded 400 mm^2.
Mice vaccinated with J558 and α-Gal Cer were injected with ascites containing 1 mg of rat monoclonal anti-CD4 (clone GK 1.5) or anti-CD8 (clone 53-6.72). The mice received three daily injections, the first one i.v. one day before the challenge, and two i.p. injections on the day of the challenge and one day after the challenge. Control mice received 1 mg of Rat IgG (Jackson Laboratories). The depletion was monitored by staining with anti-CD4 and anti-CD8 antibodies followed by flow cytometry (BD PharMingen).
In vivo delivery of dying tumor cells, DC maturation stimuli, and tumor protection assay. Different doses of irradiated J558-Ld− cells were injected i.v. into naïve BALB/c mice either alone or with αGalCer (2 or 0.2 μg/mouse) or 24 (2 or 0.2 μg/mouse) as a DC maturation stimulus. We also compared the glycolipids to agonistic anti-CD40 mAb (1C10, 25 μg, i.p.) or the Toll-like receptor ligands, poly IC (50 μg i.p., Invivogen). 14 d later, 5×10^6 live J558 tumor cells were inoculated s.c. Tumor cell growth was measured with calipers every other day. Mice were scored positive for tumor, as soon as tumors became palpable and grew progressively. Mice were euthanized when tumor size exceeded 400 mm^2.

[1] = target: T1, human CD1d dimers / invariant T cell receptor of human NKT cells (Homo sapiens, UniProt P15813); assay: In vitro CD1d-dimer assay using a human NKT cell line; format: binding; conditions: dimers loaded with 40 μM glycolipid
T1 construct: soluble divalent human CD1d-IgG1 fusion protein; IgG1 (immunoglobulin fusion partner that makes the protein divalent); purchased BD Pharmingen / BD Biosciences (DimerX)
Description: One mg of soluble divalent human CD1d-IgG1 fusion protein (human CD1d-IgG1 dimers, BD Pharmingen) were incubated overnight with […] of each glycolipid at 32° C. and at neutral pH according to the manufacturer's protocol. The glycolipid-loaded CD1d-IgG1 dimers were incubated with human NKT cells at 4° C. for 60 minutes, followed by incubation with PE-coupled anti-mouse IgG1 mAb (A85-1). The cells were also surface stained with a PerCP-coupled anti-CD3 mAb (BD Pharmingen, San Diego, Calif.).
CD1d-dimer binding assay. CD1d dimer (DimerX, BD Biosciences) was incubated overnight with 40 μM of each glycolipid at 32° C. and at neutral pH according to the manufacturer's protocol. The loaded CD1d dimers were incubated with a human NKT cell line at 4° C. for 60 min, followed by incubation with APC-conjugated secondary antibody. The cells were also co-stained with mAbs against the invariant NKT cell receptor (Vα24/Vβ11). At least 2×10^5 lymphocyte-gated events were acquired to allow reliable estimation of NKT cells.

A20 tumor cells = assay: Tumor protection assay, A20; format: in vivo, mouse; conditions: A20 challenge s.c.
Description: Mice were also injected i.v. with PBS, 2 μg α-Gal Cer, 5×10^6 irradiated A20 cells with or without 2 μg α-Gal Cer i.v. Two weeks later, mice were challenged with a lethal tumorogenic dose of 5×10^6 live A20 s.c. The mice were monitored every other day for tumor growth and were scored positive when the tumors were palpable.

CD8+ P1CTL T cells = assay: Proliferation and differentiation of P1A-specific P1CTL CD8+ T cells; format: in vivo, mouse
Description: CD8^+ P1A-specific, T cells were prepared from meshed cell suspensions of TCR transgenic lymph nodes and spleen by depleting B220, CD4, F4/80 and MHC class II-expressing cells using sheep anti-rat IgG Dynabeads®. For CFSE labeling (Molecular Probes), the cells at 10^7/ml in PBS were incubated with 5 μM CFSE for 10 min at 37° C. The reaction was stopped by washing three times with PBS.
as §1
T-cell division, phagocytosis of CFSE-labeled tumor cells and acquisition of cell surface-activation markers were determined by flow cytometry. Briefly, spleens were harvested and low-density splenocytes were stained with CD11c-APC and CD8α-PE, CD11b-PE, B220-PE or CD4-PE for the up-take examination. For in vivo proliferation of P1CTL T-cells, spleens were harvested and the splenocytes suspension was staining with CD8α-Cy, Vα8α-PE, CD25-PE, CD62L-PE. For intracellular cytokine staining, splenocytes were stimulated in vitro with 1 µg/ml P1A peptide in 5 μg/ml brefeldin A (Sigma-Aldrich) at 37° C. for 4 hrs. The cells were first stained with CD8α-Cy-Chrome™, fixed and permeabilized with cytofix-cytoperm buffer (BD Biosciences), and stained with PE conjugated mAbs to IL-2 or IFN-γ.

[2] = 0.2 μg/mouse with 1×10^7 irradiated J558Ld− tumor cells i.v.
[3] = 2 μg/mouse with 1×10^7 irradiated J558Ld− tumor cells i.v.

Molecule: 3-O-sulfo-alpha-galactosylceramide [Compound 24]
- protection from J558 tumor challenge (J558 tumor cells; [2]): 100%
- protection from J558 tumor challenge (J558 tumor cells; [3]): 100%
- mice protected by direct vaccination (J558 tumor cells; dying tumor cells with compound 24): 80-100%
- tumor growth after single agent alone (J558 tumor cells): grew progressively within 7-10 days
- maturation stimulus compared with ligation of CD40, TLR4 and TLR3 (J558 tumor cells; irradiated tumor cells i.v.): superior relative to other DC stimuli
- protective immunity to irradiated tumor injected i.v. (adjuvant comparison) (J558 tumor cells): only adjuvant that could independently induce protective immunity
- binding of loaded CD1d dimers to Vα24/Vβ11 invariant TCR expressing NKT cells [1]: to a lesser extent than α-GalCer

Molecule: CCCCCCCCCCCCCCCCCCCCCCCCCC(=O)N[C@@H](CO[C@H]1O[C@H](CO)[C@H](O)[C@H](O)[C@H]1O)[C@H](O)[C@H](O)CCCCCCCCCCCCCC [α-GalCer, 2S,3S,4R-1-O(α-galactopyranosyl)-2(N-hexacosanoylamino)-1,3,4-octadecanetriol]
- protection from J558 tumor challenge (J558 tumor cells; [2]): 100%
- protection from J558 tumor challenge (J558 tumor cells; [3]): 100%
- mice fully protected after transfer of CD11c+ DCs (J558 tumor cells; 1.5×10^6 DCs from donors given dying J558− with α-Gal Cer, 10 of 17 mice): 58%
- tumor immunity after depletion of CD4+ or CD8+ T cells (J558 tumor cells; 8 weeks after vaccination with J558 and α-Gal Cer): significantly abrogated tumor immunity
- dependence of vaccination on route (J558 tumor cells; J558 and α-Gal Cer, i.v. vs s.c.): effective only when tumor cells were injected by the i.v. and not the s.c. route
- specificity of protection (J558 vs Meth A challenge) (J558 tumor cells; dying J558− and α-Gal Cer): protected mice against a challenge of J558 but not Meth A cells
- protection against MHC class I positive or negative J558 challenge (J558 tumor cells; dying MHC class I− J558 cells and α-Gal Cer): protected against the MHC class I^+ J558 cells but not to MHC class F J558 tumor cells
- tumor immunity in Jα281−/− mice (lack NKT cells) (J558 tumor cells; dying cells plus glycolipid): failed to develop immunity
- tumor growth after single agent alone (J558 tumor cells): grew progressively within 7-10 days
- duration of tumor immunity (J558 tumor cells; single vaccination with irradiated J558 and α-Gal Cer, challenge 2 and 4 months later): long-lived tumor immunity
- therapeutic effect (J558 tumor cells; vaccinated 3 days after injection of live tumor cells): therapeutic response manifest when the tumor dose was 1×10^6 but not 5×10^6 cells
- mice protected and tumor-free after J558 challenge (J558 tumor cells; vaccination with irradiated J558− cells combined with α-Gal Cer i.v., 22 of 25 mice): 88%
- protective immunity to irradiated tumor injected i.v. (adjuvant comparison) (J558 tumor cells): only adjuvant that could independently induce protective immunity
- protective immunity compared with anti-CD40, LPS and poly IC (J558 tumor cells; with irradiated J558− cells): more efficient at inducing protective immunity than the other compounds tested
- tumor growth after glycolipid alone (J558 tumor cells; α-Gal Cer alone i.v., challenge 5×10^6 live J558 s.c.): grew progressively within 7-10 days
- tumor outcome after combined vaccination (A20 tumor cells; irradiated A20 cells and α-Gal Cer i.v.): protected and remained tumor-free
- tumor outcome after glycolipid alone (A20 tumor cells; α-Gal Cer pretreatment alone): development of palpable tumors
- stimulation of naïve CD8+ P1CTL T cells in culture by isolated DCs (CD8+ P1CTL T cells; DCs from mice given dying J558 with α-Gal Cer): much more effective at stimulating proliferation of naïve CD8^+ T cells in culture
- P1CTL proliferation in vivo after DC transfer (CD8+ P1CTL T cells; DCs isolated 4 hours after immunization, 3 days): P1CTL proliferation was detected only in response to DCs from mice given tumor with α-Gal Cer
- IFN-γ and IL-2 production on restimulation with P1A peptide (CD8+ P1CTL T cells; T cells stimulated in vivo in presence of α-Gal Cer): significantly more IFN-γ and IL-2
- P1CTL T cell proliferation in vivo (CD8+ P1CTL T cells; irradiated J558− plus α-Gal Cer vs J558− alone, 3 days): proliferated more extensively
